Data: publication PMC12469503, “Exploring the Antimicrobial and Antiviral Properties of Cryptic Peptides from Human Fibrinogen” (International Journal of Molecular Sciences, 2025)
In brackets after ≈: the same amount, converted by molar mass. Like-named read-outs stand apart in the source and are kept apart here. Ends that are not written are not given here.

Tests used:
[1] = system: Salmonella typhimurium ATCC 14028; experiment: MIC, broth microdilution; assay type: cell-based; conditions: Table 1; broth microdilution, Nutrient Broth 0.5×, overnight 37 °C; minimum of three independent experiments
Description: MIC values were determined on Gram-positive and Gram-negative bacteria by the broth microdilution method for antimicrobial peptides previously described [33, 89] with minor modifications.
Bacterial strains were grown in Luria-Bertani (LB) medium overnight at 37 °C and then diluted in Nutrient Broth at a final concentration of ~5 × 10^5 CFU/mL per well. Twofold serial dilutions of peptides were carried out in the test wells to obtain concentrations ranging from 50 μM to 0.05 μM. Plates were incubated overnight at 37 °C.
MIC value was defined as the lowest concentration at which growth was inhibited. Three independent experiments were performed for each MIC value.

[2] = assay type: physicochemical
Description: The six peptides were produced in the recombinant form by using a previously described strategy that exploit the frog protein onconase (ONC) as a carrier to drive the peptide to inclusion bodies. The fusion proteins were expressed in Escherichia coli strain BL21DE3, using the pET22b(+) vector and named: ONC-DCless-H6-(P)FIBα-GVV27, ONC-DCless-H6-(P)FIBα-SFR22, ONC-DCless-H6-(P)FIBβ-GVV28, ONC-DCless-H6-(P)FIBβ-NWK23, ONC-DCless-H6-(P)FIBγ-GII30, ONC-DCless-H6-(P)FIBγ-TWK25 (nucleotide and amino acid sequences are reported in Supplementary Figure S1). […] Peptides were released by hydrolysis of an acidic labile “Asp-Pro” sequence leading to recombinant peptides endowed with an additional Pro residue at the N-terminus. Thus, the recombinant forms of these peptides are herein named (P)FIBα-GVV27, (P)FIBα-SFR22, (P)FIBβ-GVV28, (P)FIBβ-NWK23, (P)FIBγ-GII30, (P)FIBγ-TWK25. Hydrolysis efficiencies of 95% were estimated for all the recombinant proteins (Supplementary Figure S3). To purify the recombinant peptides from the hydrolysis mixtures, the carrier and the uncleaved fusion protein were selectively precipitated by increasing the pH to 7 exploiting the fact that ONC is insoluble at pH higher than 5, whereas most AMPs are soluble also at neutral pH. […] Therefore, purification of (P)FIBα-SFR22, (P)FIBα-GVV27, (P)FIBβ-NWK23 and (P)FIBγ-TWK25 was first performed by selective precipitation, to remove the carrier and the uncleaved fusion protein, followed by Reverse Phase High-Performance Liquid Chromatography (RP-HPLC) on a C18 column, whereas purification of (P)FIBβ-GVV28 and (P)FIBγ-GII30 was performed directly by RP-HPLC omitting the selective precipitation step. Final yields of all recombinant peptides ranged from approximately 6 to 12 mg per liter of LB culture. Peptide purity, as determined by RP-HPLC, typically varied between 95% and 99% (Supplementary Figure S4).
Peptides (P)FIBα-GVV27, (P)FIBα-SFR22, (P)FIBβ-NWK23 and (P)FIBγ-TWK25 were separated from the carrier and the uncleaved fusion proteins as previously described. The hydrolysis mixture was neutralized to pH 7–7.2 by adding 1 M NH3 and incubated for 1 h at 25 °C under nitrogen atmosphere in a water bath. […] Supernatant and insoluble fraction were analyzed by SDS-PAGE. Concentration of the peptide into the soluble fraction was determined by spectrophotometric analyses using extinction coefficients (Supplementary Table S1) calculated by the ProtParam tool. After the selective precipitation step, purification of the peptide was performed by RP-HPLC. The linear gradients used are listed in Supplementary Table S2. Purification of (P)FIBβ-GVV28 and (P)FIBγ-GII30 was performed directly by RP-HPLC, omitting the selective precipitation step. Purified peptides were lyophilized and dissolved in deionized water. Samples were stored at −80 °C under nitrogen atmosphere. Purity of peptides was evaluated by RP-HPLC on Europa Protein 300 C18 column (5 μm, 25 × 1) using the linear gradients listed in Supplementary Table S2. The identity of the peptides was confirmed by mass spectrometry.

[3] = system: Escherichia coli ATCC 25922
[4] = system: Klebsiella pneumonia ATCC 700603; conditions: ATCC 700603
[5] = system: Acinetobacter baumanii ATCC 17878
[6] = system: Salmonella enteriditis 706 RIVM
[7] = system: Pseudomonas aeruginosa PAO1; conditions: PAO1
[8] = system: Pseudomonas aeruginosa PA14
[9] = system: Pseudomonas aeruginosa RP73 (clinical isolate)
[10] = system: Staphylococcus aureus ATCC 6538P; conditions: for MIC S. aur.: ATCC 6538
[11] = system: Enterococcus faecalis ATCC 29212
[12] = system: Pseudomonas aeruginosa PAO1; conditions: for MBC: PAO1; for MBC/MIC: Table 2, Pseudomonas aeruginosa PAO1
[13] = system: Staphylococcus aureus ATCC 6538P; conditions: for MBC: ATCC 6538; for MBC/MIC: Table 2, Staphylococcus aureus ATCC 6538P
[14] = system: Sheep Red Blood Cells
Description: (§1) To assess the safety profile of the FIB-derived peptides, their hemolytic activity was evaluated by measuring the release of hemoglobin from sheep red blood cells after 1-h incubation with increasing peptide concentrations.
(§2) Briefly, Sheep Red Blood Cells were diluted in PBS 1× to reach a final concentration of 2%. Aliquots of diluted erythrocytes (100 μL) were added to each peptide solution (0–100 μM; 100 μL) in 96-well microtiter plates, and the mixture was incubated for 30 min under shaking (3000 rpm) at 37 °C. Following the incubation, a 3 min centrifugation at 4 °C was performed, and 50 µL of the supernatant from each sample were transferred to a 96 well plate. […] Hemolysis percentage was calculated by comparing samples to controls containing PBS (negative control) and 1% SDS (v/v) in PBS solution (positive control, inducing complete lysis). Hemolysis%=(Abs405 nm peptide−Abs405 nm negative control)/(Abs405 nm positive control−Abs405 nm negative control)×100.

[15] = system: HSV-1; conditions: Vero cells
[16] = system: Sheep Red Blood Cells; experiment: Hemolysis assay; conditions: read-out: IC50 (concentration required to induce 50% hemolysis), peptide 0.78–100 µM, 37 °C, absorbance 405 nm, 1% SDS positive control, triplicate
Description: as §1, §2

[17] = system: P. aeruginosa PAO1 biofilm; experiment: Antibiofilm attachment assay, confocal microscopy; conditions: peptide 20 µM added with bacteria, stained after 4 h, Live/Dead BacLight, three independent experiments, t-test vs control
[18] = system: HCoV-229E; conditions: Vero cells; for antiviral activity against HCoV-229E: co-treatment assay, from 50 μM peptide
[19] = system: P. aeruginosa PAO1 biofilm; experiment: Antibiofilm detachment assay, confocal microscopy; conditions: peptide 20 µM on 24 h pre-formed biofilm, further 24 h, Live/Dead BacLight, three independent experiments
[20] = system: Staphylococcus aureus ATCC 6538P; experiment: microbe, parasite or virus in culture; conditions: ATCC6538P
[21] = system: Staphylococcus aureus ATCC 6538P; experiment: microbe, parasite or virus in culture; conditions: ATCC6538P; remark: listed apart in the source
[22] = system: P. aeruginosa PAO1; conditions: PAO1, 16 h
Description: Plates were incubated 16 h at 37 °C. FIC index was calculated as follows: FICA + FICB, where FICA = MIC of drug A in combination/MIC of drug A alone, and FICB = MIC of drug B in combination/MIC of drug B alone.

[23] = Table 1, broth microdilution, Nutrient Broth 0.5×, ~5 × 10^5 CFU/mL, overnight 37 °C, minimum of three independent experiments
[24] = Table 1, broth microdilution, Nutrient Broth 0.5×, overnight 37 °C, minimum of three independent experiments
[25] = Table 1, control antibiotic, twofold dilutions from 64 µg/mL
[26] = peptide 1 h before infection or 1 h after infection

Molecule | MIC S. typ. [1] [µM] | solubility / aggregation at pH 7 [2] | MIC E. coli ([3]; ATCC 25922) [µM] | MIC K. pne. [4] [µM] | MIC A. bau. ([5]; ATCC 17878) [µM] | MIC S. ent. [6] [µM] | MIC PAO1 [7] [µM] | MIC PA14 ([8]; PA14) [µM] | MIC RP73 ([9]; RP73 (clinical isolate)) [µM] | MIC S. aur. [10] [µM] | MIC E. fae. ([11]; ATCC 29212) [µM] | MBC [12] [µM] | MBC/MIC [12] | MBC [13] [µM] | MBC/MIC [13] | release of hemoglobin at 100 µM [14] | IC50 [16] [µM] | fluorescence signal of SYTO 9 (live cells), attachment assay [17] | MIC E. coli [3, 23] [µM] | MIC A. bau. [5, 24] [µM] | other results
H-PSFRGADYSLRAVRMKIRPLVTQ [(P)FIBα-SFR22] | 25 | soluble at pH 7 | 25 | >50 | 25 | >50 | 12.5 | 12.5 | 6.25 | 12.5 | 6.25 | 12.5 | 1 | 12.5 | 1 | limited release of hemoglobin | > 100 | did not cause any reduction |  |  | antiviral activity against HSV-1 ([15]; co-treatment assay, from 50 μM peptide): no significant effect
H-PTWKTRWYSMKKTTMKIIPFNRLTIG [(P)FIBγ-TWK25] | 3.12 | soluble at pH 7 |  | 6.25 |  |  | 3.12 |  |  | 1.56 |  | 3.12 | 1 | 1.56 | 1 | limited release of hemoglobin | ~100 | significantly reduced | 3.12 | 3.12 | MIC S. ent. [6, 24]: 3.12 µM; MIC PA14 [8, 24]: 3.12 µM; MIC RP73 [9, 24]: 3.12 µM; MIC E. fae. [11, 24]: 3.12 µM; antiviral activity against HCoV-229E [18]: absence of efficacy; SYTO 9 / PI signal, detachment assay [19]: significantly reducing the SYTO 9 signal
CN[C@H](CC(C)C)C(=O)N[C@H]1C(=O)N[C@@H](CC(N)=O)C(=O)N[C@H]2C(=O)N[C@H]3C(=O)N[C@H](C(=O)N[C@H](C(=O)O)c4cc(O)cc(O)c4-c4cc3ccc4O)[C@H](O)c3ccc(c(Cl)c3)Oc3cc2cc(c3O[C@@H]2O[C@H](CO)[C@@H](O)[C@H](O)[C@H]2O[C@H]2C[C@](C)(N)[C@H](O)[C@H](C)O2)Oc2ccc(cc2Cl)[C@H]1O [Vancomycin, reference compound] |  |  |  |  |  |  |  |  |  |  |  |  |  |  | 1 |  |  |  |  |  | MIC S. aur. (antibiotics) [10, 25]: 0.5 µg/mL (≈ 0.345 µM); MIC E. fae. (antibiotics) [11, 25]: 2 µg/mL (≈ 1.38 µM); MIC [20]: 0.5 µg/mL (≈ 0.345 µM); MBC [21]: 0.5 µg/mL (≈ 0.345 µM)
GIIWATWKTRWYSMKKTTMKIIPFNRLTIG [FIBγ-GII30] | 6.25 |  |  | 12.5 |  | 12.5 | 6.25 |  | 3.12 | 6.25 |  |  |  |  |  |  |  |  | 6.25 | 6.25 | MIC PA14 [8, 24]: 6.25 µM; MIC E. fae. [11, 24]: 6.25 µM; FICI of peptide/tobramycin combinations [22]: 0.5–0.53
H-PGVVWMNWKGSWYSMRKMSMKIRPFFPQQ [(P)FIBβ-GVV28] | 12.5 | particularly prone to aggregation and precipitation | 6.25 | 25 | 6.25 |  | 6.25 | 6.25 | 6.25 | 3.12 | 6.25 | 6.25 | 1 | 3.12 | 1 |  |  | significantly reduced |  |  | MIC S. ent. [6, 24]: 12.5 µM; antiviral activity against HCoV-229E in cell pre-treatment and post-infection treatment [18, 26]: appreciable antiviral activity; antiviral activity against HCoV-229E [18]: strong antiviral activity; antiviral activity against HSV-1 in cell pre-treatment and post-infection treatment [15, 26]: appreciable antiviral activity; SYTO 9 / PI signal, detachment assay [19]: significantly reducing the SYTO 9 signal
